Test results reported in ChEMBL document CHEMBL5291721, “A preclinical secondary pharmacology resource illuminates target-adverse drug reaction associations of marketed drugs” (Nat Commun, 2023).

Key:
[1] = target: 5-hydroxytryptamine receptor 2B (Homo sapiens, UniProt P41595); type: functional, cell-based
[2] = target: Neuronal acetylcholine receptor subunit alpha-4 (Homo sapiens, UniProt P43681)
[3] = target: T1, 5-hydroxytryptamine receptor 3A (Homo sapiens, UniProt P46098); type: functional
T1 sequence (P46098 whole entry): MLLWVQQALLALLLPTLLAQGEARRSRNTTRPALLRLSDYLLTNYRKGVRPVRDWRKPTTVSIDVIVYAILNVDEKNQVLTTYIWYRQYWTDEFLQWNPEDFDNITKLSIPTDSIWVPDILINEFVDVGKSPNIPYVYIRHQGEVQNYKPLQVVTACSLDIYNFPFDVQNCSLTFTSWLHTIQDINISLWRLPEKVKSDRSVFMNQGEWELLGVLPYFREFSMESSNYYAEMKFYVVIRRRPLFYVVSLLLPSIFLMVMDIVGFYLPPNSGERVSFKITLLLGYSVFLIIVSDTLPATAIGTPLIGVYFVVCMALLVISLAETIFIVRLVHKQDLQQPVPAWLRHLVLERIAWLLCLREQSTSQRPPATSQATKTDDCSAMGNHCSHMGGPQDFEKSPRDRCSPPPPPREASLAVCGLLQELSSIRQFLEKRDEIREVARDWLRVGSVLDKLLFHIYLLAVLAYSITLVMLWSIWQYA

[4] = target: T2, Prostaglandin G/H synthase 1 (Rattus norvegicus, UniProt Q63921); type: functional
T2 sequence (Q63921 whole entry): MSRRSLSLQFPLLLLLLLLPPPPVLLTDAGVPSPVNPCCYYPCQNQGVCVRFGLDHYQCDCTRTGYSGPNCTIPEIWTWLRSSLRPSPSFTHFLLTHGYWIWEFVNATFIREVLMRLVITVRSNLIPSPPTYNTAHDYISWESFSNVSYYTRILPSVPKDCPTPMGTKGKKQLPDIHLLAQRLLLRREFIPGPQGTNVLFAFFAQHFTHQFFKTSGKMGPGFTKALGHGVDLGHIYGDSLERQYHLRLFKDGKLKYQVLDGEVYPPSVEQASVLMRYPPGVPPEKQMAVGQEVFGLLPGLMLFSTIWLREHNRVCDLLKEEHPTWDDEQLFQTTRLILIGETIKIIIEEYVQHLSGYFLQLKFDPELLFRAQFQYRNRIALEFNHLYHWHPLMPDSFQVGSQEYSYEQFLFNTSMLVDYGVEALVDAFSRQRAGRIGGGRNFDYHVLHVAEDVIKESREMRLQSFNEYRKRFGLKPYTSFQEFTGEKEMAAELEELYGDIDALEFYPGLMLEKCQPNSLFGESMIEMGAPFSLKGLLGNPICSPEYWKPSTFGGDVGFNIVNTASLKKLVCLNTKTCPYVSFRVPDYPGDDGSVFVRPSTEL

Bile salt export pump = Bile salt export pump (Homo sapiens, UniProt O95342); type: functional
[5] = target: T3, 5-hydroxytryptamine receptor 2C (Homo sapiens, UniProt P28335)
T3 sequence (P28335 whole entry): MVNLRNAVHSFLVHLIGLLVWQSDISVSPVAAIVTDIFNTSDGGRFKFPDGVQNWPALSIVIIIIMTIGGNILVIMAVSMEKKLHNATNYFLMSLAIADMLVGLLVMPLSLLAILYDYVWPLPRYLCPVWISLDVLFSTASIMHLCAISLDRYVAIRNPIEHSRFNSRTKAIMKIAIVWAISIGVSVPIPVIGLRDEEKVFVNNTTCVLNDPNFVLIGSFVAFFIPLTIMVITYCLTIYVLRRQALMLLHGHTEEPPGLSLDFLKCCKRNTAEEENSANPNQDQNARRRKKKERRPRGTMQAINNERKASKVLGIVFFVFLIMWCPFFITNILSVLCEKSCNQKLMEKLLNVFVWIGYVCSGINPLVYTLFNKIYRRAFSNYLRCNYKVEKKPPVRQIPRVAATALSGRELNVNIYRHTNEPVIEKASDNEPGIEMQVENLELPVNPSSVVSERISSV

[6] = target: Voltage-gated inwardly rectifying potassium channel KCNH2 (Homo sapiens, UniProt Q12809); type: functional; conditions: read-out: AC50
Vasopressin V1a receptor = Vasopressin V1a receptor (Homo sapiens, UniProt P37288)
[7] = target: T4, Amine oxidase [flavin-containing] A (Homo sapiens, UniProt P21397); type: functional
T4 sequence (P21397 whole entry): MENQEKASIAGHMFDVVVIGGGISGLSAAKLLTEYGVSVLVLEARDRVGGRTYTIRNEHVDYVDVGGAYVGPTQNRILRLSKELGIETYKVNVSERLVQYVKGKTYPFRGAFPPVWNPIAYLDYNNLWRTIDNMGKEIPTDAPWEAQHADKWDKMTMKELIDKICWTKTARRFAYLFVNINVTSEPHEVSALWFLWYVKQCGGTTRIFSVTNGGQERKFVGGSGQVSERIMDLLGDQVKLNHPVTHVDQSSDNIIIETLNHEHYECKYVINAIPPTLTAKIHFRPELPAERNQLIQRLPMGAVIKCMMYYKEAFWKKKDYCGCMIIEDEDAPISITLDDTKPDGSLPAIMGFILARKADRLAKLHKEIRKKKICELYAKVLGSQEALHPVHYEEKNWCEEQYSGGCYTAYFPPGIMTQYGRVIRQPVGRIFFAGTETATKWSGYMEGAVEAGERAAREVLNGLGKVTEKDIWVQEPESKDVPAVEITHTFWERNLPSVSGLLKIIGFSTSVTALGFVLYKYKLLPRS

[8] = target: Sodium-dependent noradrenaline transporter (Homo sapiens, UniProt P23975)
Adenosine receptor A3 = target: T5, Adenosine receptor A3 (Homo sapiens, UniProt P0DMS8)
T5 sequence (P0DMS8 whole entry): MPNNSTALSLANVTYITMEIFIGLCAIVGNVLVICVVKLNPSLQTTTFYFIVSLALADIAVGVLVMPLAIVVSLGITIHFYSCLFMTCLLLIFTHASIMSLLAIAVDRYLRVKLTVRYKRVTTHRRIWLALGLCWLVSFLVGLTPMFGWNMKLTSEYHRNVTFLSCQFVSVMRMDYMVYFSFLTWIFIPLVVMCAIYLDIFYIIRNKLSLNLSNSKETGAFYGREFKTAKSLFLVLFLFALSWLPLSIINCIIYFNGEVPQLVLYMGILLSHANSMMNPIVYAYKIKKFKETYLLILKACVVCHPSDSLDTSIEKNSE

D(3) dopamine receptor = D(3) dopamine receptor (Homo sapiens, UniProt P35462)
[9] = target: Beta-1 adrenergic receptor (Homo sapiens, UniProt P08588); type: functional
D(1A) dopamine receptor = D(1A) dopamine receptor (Homo sapiens, UniProt P21728); type: functional, cell-based
Note: assay procedure not described here.

Chain of Sodium-dependent noradrenaline transporter (P23975 whole entry): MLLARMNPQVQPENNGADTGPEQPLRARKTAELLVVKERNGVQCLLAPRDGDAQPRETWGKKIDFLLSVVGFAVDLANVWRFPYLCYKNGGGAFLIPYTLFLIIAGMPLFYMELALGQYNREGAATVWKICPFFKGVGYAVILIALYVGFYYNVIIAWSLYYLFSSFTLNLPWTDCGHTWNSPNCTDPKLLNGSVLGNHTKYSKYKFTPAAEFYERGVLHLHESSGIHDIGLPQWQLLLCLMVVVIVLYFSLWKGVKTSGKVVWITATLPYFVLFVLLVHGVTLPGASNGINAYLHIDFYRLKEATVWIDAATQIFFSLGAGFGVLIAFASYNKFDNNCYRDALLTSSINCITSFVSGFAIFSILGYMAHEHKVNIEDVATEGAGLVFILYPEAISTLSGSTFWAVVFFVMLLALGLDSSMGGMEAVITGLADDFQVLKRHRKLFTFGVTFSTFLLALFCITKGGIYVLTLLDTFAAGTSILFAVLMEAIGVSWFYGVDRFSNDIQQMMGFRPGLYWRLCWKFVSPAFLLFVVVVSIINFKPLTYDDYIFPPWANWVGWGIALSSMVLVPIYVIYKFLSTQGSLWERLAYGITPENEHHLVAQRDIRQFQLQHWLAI
Chain of Voltage-gated inwardly rectifying potassium channel KCNH2 (Q12809 whole entry): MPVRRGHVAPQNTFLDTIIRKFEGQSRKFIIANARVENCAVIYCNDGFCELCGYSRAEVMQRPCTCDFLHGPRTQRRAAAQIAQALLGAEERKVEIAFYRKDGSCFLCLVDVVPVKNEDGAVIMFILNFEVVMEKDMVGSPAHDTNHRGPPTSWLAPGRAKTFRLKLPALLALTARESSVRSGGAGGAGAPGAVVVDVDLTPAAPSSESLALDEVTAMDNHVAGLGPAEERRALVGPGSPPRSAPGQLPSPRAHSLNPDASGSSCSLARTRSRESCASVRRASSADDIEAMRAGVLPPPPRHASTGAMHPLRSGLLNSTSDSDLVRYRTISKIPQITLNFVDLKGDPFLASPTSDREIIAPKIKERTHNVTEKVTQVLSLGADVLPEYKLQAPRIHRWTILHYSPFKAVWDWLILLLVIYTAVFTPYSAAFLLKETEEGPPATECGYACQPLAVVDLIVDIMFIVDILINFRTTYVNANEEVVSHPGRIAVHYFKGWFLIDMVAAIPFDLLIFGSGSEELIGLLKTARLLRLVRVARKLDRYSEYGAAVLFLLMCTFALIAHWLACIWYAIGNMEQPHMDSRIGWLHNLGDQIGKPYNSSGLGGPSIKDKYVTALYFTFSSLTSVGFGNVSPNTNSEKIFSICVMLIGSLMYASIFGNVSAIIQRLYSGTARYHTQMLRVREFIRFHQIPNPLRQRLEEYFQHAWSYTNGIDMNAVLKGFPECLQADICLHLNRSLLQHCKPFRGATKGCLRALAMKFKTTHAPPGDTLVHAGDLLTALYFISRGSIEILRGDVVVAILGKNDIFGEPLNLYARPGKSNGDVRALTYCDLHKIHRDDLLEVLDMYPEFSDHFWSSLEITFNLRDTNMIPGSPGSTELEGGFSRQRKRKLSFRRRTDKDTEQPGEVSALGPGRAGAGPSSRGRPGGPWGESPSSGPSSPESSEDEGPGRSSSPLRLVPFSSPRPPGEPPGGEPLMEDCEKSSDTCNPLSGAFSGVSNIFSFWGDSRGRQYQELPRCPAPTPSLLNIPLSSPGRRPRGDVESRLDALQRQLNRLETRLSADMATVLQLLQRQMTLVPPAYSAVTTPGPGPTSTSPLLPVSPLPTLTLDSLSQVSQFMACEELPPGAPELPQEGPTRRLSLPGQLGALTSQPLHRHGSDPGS
Chain of D(3) dopamine receptor (P35462 whole entry): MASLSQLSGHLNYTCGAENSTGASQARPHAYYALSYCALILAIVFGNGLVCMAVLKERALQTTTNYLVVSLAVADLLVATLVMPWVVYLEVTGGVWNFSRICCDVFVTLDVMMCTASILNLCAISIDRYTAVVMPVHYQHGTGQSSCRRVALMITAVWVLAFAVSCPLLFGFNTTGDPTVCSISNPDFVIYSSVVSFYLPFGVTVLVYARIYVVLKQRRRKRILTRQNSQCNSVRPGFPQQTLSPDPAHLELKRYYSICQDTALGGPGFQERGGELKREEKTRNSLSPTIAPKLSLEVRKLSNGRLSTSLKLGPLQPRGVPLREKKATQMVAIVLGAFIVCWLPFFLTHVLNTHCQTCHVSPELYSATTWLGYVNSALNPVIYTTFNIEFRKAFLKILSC
Chain of 5-hydroxytryptamine receptor 2B (P41595 whole entry): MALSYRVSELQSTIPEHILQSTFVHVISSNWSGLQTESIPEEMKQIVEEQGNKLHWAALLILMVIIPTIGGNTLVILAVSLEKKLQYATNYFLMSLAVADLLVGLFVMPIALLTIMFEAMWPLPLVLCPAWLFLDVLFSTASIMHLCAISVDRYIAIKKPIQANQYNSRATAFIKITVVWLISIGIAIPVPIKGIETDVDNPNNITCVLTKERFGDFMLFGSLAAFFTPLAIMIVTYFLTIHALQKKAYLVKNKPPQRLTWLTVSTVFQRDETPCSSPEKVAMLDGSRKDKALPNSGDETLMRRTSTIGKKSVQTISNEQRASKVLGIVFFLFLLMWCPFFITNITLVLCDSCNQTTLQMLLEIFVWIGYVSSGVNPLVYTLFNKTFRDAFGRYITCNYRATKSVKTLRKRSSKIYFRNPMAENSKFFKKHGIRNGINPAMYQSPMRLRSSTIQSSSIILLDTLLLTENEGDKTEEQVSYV
Chain of Vasopressin V1a receptor (P37288 whole entry): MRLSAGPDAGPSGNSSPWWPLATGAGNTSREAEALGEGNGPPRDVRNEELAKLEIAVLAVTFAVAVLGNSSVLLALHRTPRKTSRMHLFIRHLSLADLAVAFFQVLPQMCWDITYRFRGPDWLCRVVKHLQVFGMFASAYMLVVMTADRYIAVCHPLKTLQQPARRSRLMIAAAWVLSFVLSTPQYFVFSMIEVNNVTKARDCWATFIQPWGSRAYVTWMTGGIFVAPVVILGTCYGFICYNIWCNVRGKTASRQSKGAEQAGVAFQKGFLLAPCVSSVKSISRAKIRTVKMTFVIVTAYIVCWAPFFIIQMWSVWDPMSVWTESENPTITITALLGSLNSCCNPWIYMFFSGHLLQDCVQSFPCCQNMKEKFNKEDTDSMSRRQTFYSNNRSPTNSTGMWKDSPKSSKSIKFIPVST
Chain of D(1A) dopamine receptor (P21728 whole entry): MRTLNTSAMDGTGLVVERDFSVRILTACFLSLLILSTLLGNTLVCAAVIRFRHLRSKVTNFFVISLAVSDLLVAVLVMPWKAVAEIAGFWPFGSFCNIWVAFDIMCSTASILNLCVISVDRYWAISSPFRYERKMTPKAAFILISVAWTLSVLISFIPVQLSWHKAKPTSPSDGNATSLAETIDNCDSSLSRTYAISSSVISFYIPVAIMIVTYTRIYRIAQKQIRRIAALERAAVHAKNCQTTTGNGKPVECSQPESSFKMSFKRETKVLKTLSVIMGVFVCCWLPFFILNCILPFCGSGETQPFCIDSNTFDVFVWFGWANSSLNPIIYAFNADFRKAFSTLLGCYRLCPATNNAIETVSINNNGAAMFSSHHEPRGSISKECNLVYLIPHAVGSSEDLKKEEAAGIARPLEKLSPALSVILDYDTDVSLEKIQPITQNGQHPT
Chain of Beta-1 adrenergic receptor (P08588 whole entry): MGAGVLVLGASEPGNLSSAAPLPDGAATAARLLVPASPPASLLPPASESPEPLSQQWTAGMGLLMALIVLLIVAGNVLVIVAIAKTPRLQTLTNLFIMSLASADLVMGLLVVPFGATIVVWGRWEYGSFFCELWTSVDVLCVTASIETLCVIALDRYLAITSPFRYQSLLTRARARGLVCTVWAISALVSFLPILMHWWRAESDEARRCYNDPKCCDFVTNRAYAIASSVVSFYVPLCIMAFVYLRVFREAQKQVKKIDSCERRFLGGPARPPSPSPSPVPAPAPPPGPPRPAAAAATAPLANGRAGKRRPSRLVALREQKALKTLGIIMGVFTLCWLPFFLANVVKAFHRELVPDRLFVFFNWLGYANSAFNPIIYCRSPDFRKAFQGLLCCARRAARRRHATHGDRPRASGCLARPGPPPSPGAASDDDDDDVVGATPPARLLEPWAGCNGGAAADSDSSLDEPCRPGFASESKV
Chain of Neuronal acetylcholine receptor subunit alpha-4 (P43681 whole entry): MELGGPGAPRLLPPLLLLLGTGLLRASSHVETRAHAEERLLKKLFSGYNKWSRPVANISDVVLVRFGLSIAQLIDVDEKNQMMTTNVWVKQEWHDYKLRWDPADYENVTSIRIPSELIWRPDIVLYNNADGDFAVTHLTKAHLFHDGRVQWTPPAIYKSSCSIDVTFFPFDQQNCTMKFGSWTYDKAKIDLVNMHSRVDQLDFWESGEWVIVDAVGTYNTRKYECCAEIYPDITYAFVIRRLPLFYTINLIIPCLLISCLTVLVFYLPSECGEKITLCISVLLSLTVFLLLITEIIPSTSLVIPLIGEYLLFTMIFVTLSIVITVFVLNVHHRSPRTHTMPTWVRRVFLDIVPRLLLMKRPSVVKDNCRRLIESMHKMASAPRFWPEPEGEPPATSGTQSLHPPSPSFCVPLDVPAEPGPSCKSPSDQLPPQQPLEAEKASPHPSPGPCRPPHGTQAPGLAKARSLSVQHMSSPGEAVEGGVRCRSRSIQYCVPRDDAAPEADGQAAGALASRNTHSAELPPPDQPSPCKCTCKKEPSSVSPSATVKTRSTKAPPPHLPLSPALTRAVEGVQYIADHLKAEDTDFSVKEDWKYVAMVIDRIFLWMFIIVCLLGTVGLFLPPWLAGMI

SMILES | AC50 [1] | AC50 [2] | AC50 [3] | AC50 [4] | AC50 (Bile salt export pump) | AC50 [5] | AC50 [6] | AC50 (Vasopressin V1a receptor) | AC50 [7] | AC50 [8] | AC50 (Adenosine receptor A3) | AC50 (D(3) dopamine receptor) | AC50 [9] | AC50 (D(1A) dopamine receptor)
CO[C@H]1C[C@@H]2CC[C@@H](C)[C@@](O)(O2)C(=O)C(=O)N2CCCC[C@H]2C(=O)O[C@H]([C@H](C)C[C@@H]2CC[C@@H](O)[C@H](OC)C2)CC(=O)[C@H](C)/C=C(\C)[C@@H](O)[C@@H](OC)C(=O)[C@H](C)C[C@H](C)/C=C/C=C/C=C/1C [SIROLIMUS] | > 10 µM | > 10 µM | > 30 µM | > 30 µM | 1.01 µM | > 30 µM | > 30 µM | > 30 µM | 5.6 µM | > 30 µM | 21.3 µM | 0.87 µM | > 10 µM | > 10 µM
Cc1cn([C@H]2C=C[C@@H](CO)O2)c(=O)[nH]c1=O [STAVUDINE] | > 10 µM | > 10 µM | > 10 µM | > 30 µM | > 300 µM | > 30 µM | > 30 µM | > 10 µM | > 30 µM | > 10 µM | > 30 µM | > 10 µM | > 10 µM | > 10 µM
Cn1nnc2c(C(N)=O)ncn2c1=O [TEMOZOLOMIDE] | > 30 µM | > 30 µM | > 30 µM | > 30 µM | > 300 µM | > 30 µM | > 30 µM | > 30 µM | > 30 µM | > 30 µM | > 30 µM | > 30 µM | > 30 µM | > 30 µM
Clc1ccc2nsnc2c1NC1=NCCN1 [TIZANIDINE] | > 30 µM | > 10 µM | > 30 µM | > 30 µM | > 300 µM | > 30 µM | > 30 µM | > 10 µM | > 10 µM | > 10 µM | > 30 µM | > 10 µM | > 10 µM | > 10 µM
O=C(O[C@H]1C[C@H]2CC[C@@H](C1)[N+]21CCCC1)C(O)(c1ccccc1)c1ccccc1 [TROSPIUM] | > 30 µM | > 30 µM | > 30 µM | > 30 µM | > 300 µM | > 30 µM | 0.63 µM | > 30 µM | > 30 µM | > 30 µM | > 30 µM | > 30 µM | > 30 µM | > 30 µM
N[C@@H]1[C@H]2CN(c3nc4c(cc3F)c(=O)c(C(=O)O)cn4-c3ccc(F)cc3F)C[C@@H]12 [TROVAFLOXACIN] | > 30 µM | > 30 µM | > 30 µM | > 30 µM | > 300 µM | > 30 µM | > 30 µM | > 30 µM | > 30 µM | > 30 µM | > 30 µM | > 30 µM | > 30 µM | > 30 µM
Nc1ccn([C@H]2CC[C@@H](CO)O2)c(=O)n1 [ZALCITABINE] | > 10 µM | > 10 µM | > 30 µM | > 10 µM | > 300 µM | > 30 µM | > 30 µM | > 10 µM | > 10 µM | > 10 µM | > 10 µM | > 10 µM | > 10 µM | > 10 µM
Cc1cn([C@H]2C[C@H](N=[N+]=[N-])[C@@H](CO)O2)c(=O)[nH]c1=O [ZIDOVUDINE] | > 10 µM | > 10 µM | > 30 µM | > 30 µM | > 300 µM | > 30 µM | > 30 µM | > 10 µM | > 10 µM | > 10 µM | > 30 µM | > 10 µM | > 10 µM | > 10 µM
NS(=O)(=O)Cc1noc2ccccc12 [ZONISAMIDE] | > 10 µM | > 10 µM | > 30 µM | > 10 µM | > 300 µM | > 30 µM | > 30 µM | > 10 µM | > 10 µM | > 10 µM | > 10 µM | > 30 µM | > 10 µM | > 10 µM
